Measured values taken from patent publication US12292437B2, “Fluorescence histo-tomography (FHT) systems and methods” (Emit Imaging, Inc., priority 2015, dated 2025).

Details: rat, in vivo
Source text: To address some of these potential drawbacks, as described above, high resolution white light and multispectral (700 and 800 nm) fluorescence images may be captured off the block after every pass of the micro- or macrotome blade using an intraoperative fluorescence imaging system, thus vastly improving the amount of information captured throughout the specimen and decreasing total acquisition time. Generally, the process of fluorescent and high resolution white light data collection and subsequent co-registration and/or three-dimensional reconstruction, is referred to herein as cryofluorescence tomography or FHT.
To investigate the ability of FHT to study the physiology of the brain, XenoLight RediJect 2-Deoxy-D-glucose (2-DG, PerkinElmer, 750 nm excitation), a fluorescent glucose metabolism tracer, was injected into the intrathecal space of a rat. After 1.5 hours of distribution, the animal was sacrificed, the brain tissue excised, and the sample was cryopresevered in OCT. With each pass of the microtome blade (25 micron spacing), a high resolution white light and fluorescent image was acquired.
Further, to study the anatomy of ventricles and subarachnoid space, a fluorescent zwitterionic compound ZW800-1 (Curadel, LLC) was injected into the rat intrathecal space. This compound is not expected to cross into the brain parenchyma due to its chemical properties. […]

fluorescence signal in brain parenchyma: taken up in the brain parenchyma
Substance: XenoLight RediJect 2-Deoxy-D-glucose [2-DG]
